From patent US20060084135A1, “Compositions for manipulating the lifespan and stress response of cells and organisms” (priority 2003, published 2006) come the findings set out here.

Experiment [1] deals with lysine 382 of p53 in U2OS osteosarcoma cells. Nature of the experiment: p53 Ac-K382 Western blot after UV radiation in U2OS cells. The class given is cell-based, human.
Experiment [2] deals with lysine 382 of p53 in HEK 293 cells. Nature of the experiment: p53 Ac-K382 Western blot in HEK 293 cells expressing dominant negative SIRT1-H363Y. The class given is cell-based, human. The following applies: low concentrations of resveratrol. On the technique in general: Immunoblotting shows a protein as a band on a membrane.
In another experiment the test system is C. elegans (strain N2). Nature of the experiment: C. elegans lifespan. The class given is in vivo. The following applies: 100 μM, 50 worms strain N2 (control 5 alive). On the procedure:
Thus, the presence of resveratrol in the growth media of C. elegans extends their lifespan.
The effect of some of these compounds on lifespan was determined in yeast, C. elegans and D. melanogaster, as described above.

A further experiment has as its target recombinant GST-Sir2 (Saccharomyces cerevisiae, UniProt P06700). As to the kind of experiment: Sir2 deacetylation rate assay. The class given is biochemical, S. cerevisiae. The following applies: in vitro dose-response. On the procedure: Average lifespan was determined for wild type untreated (□), quercetin (◯) and piceatannol (●).
To investigate whether these compounds could stimulate sirtuins in vivo, we utilized S. cerevisiae, an organism in which the upstream regulators and downstream targets of Sir2 are relatively well understood.
His6-tagged recombinant SIRT1 and GST-tagged recombinant Sir2 were prepared as described by (Bitterman et al. J Biol Chem 277, 45099-107. (2002). From 0.1 to 1 μg of SIRT1 and 1.5 μg of Sir2 were used per deacetylation assay (in 50 μl total reaction). SIRT1 assays and certain of those for Sir2 employed the p53-382 acetylated substrate (‘Fluor de Lys-SIRT1′, BIOMOL) rather than FdL.
Themed compound libraries (BIOMOL) were used for primary and secondary screening. […] For water soluble compounds and negative controls, 1% v/v DMSO was added to the assay. […] HeLa cells were grown and the cellular deacetylation assays were performed and read, as above, but in full-volume 96-well microplates (Corning Costar 3595). […] Calculation of net fluorescence increases included subtraction of a blank value, which in the case of Sir2 was obtained by omitting the enzyme from the reaction and in the case of SIRT1 by adding an inhibitor (200 μM suramin or 1 mM nicotinamide) to the reaction prior to the acetylated substrate. […]

SMILES strings stand for the structures.

Chain of recombinant GST-Sir2 (P06700 whole entry): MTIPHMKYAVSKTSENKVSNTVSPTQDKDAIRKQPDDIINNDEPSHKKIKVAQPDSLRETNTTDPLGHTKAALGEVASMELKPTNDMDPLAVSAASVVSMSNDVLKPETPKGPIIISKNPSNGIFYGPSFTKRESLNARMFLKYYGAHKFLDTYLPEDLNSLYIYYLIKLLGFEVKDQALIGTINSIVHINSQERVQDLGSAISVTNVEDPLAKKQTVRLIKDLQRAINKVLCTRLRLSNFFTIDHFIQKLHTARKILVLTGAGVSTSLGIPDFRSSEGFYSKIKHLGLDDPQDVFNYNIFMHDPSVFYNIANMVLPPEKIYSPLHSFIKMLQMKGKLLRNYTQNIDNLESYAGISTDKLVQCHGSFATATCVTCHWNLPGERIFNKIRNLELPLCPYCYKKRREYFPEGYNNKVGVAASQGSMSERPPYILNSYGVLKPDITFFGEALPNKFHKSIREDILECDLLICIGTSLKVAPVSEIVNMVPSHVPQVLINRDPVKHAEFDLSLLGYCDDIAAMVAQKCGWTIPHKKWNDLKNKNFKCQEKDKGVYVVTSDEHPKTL

Regarding `Oc1ccc(/C=C/c2cc(O)cc(O)c2)cc1` [Resveratrol, 3,5,4′-Trihydroxy-trans-stilbene], in experiment [1] (0.5 μM resveratrol, 4 hours pre-treatment, UV radiation), the “Level of Ac-K382 of p53 compared to untreated cells” value is “marked decrease”. For the same molecule, the “Level of Ac-K382 of p53” value in experiment [1] (higher concentrations of resveratrol (>50 μM)) was “reversed”. Further, the “Ability to promote deacetylation of p53 in cells expressing dominant-negative SIRT1 (H363Y)” value in experiment [2] is “diminished”. In addition, the “Worms alive on day 17” value in the experiment with C. elegans (strain N2) is 17 worms. At recombinant GST-Sir2, the “Concentrations at which inhibition of Sir2 was seen” value is above 100 µM and the “Optimum concentration of activator for Sir2 stimulation” value is 2 to 5 µM.
